# According to patent US4886817A, “Imidazolidinones as brain activators” (Tanabe Seiyaku Co., Ltd., priority 1986, dated 1989):
# Key:
# [1] = Preventive effect on maximum electroshock-induced convulsion; format: in vivo, male Std/ddY mice; conditions: 100 mg/kg, oral, 1 hour before electroshock
# Excerpt: (Preventive effect on maximum electroshock-induced convulsion)
# One hour after oral administration of a test compound to male Std/ddY mice, maximum electroshock (AC 900 V, 25 mA, 0.15 second) was delivered to said mice through corneal electrodes from an electrical stimulator.
# [2] = Gastric juice secretion in pylorus ligated rats; format: in vivo; conditions: 30 mg/kg, intraperitoneal, 5 hours after administration
# Excerpt: (§1) In addition, Compound (I) and a salt thereof may have also an inhibitory effect on gastric juice secretion and may be used for therapy and prophylaxy of peptic ulcer. […] Further, the compound of the present invention is low in toxicity and has high safety as pharmaceuticals.
# [3] = Spontaneous locomotion in mice which received apomorphine; format: in vivo; conditions: 45 mg/kg, oral; apomorphine 0.03 or 0.1 mg/kg, s.c.
# Excerpt: Compound (I) of the present invention and a salt thereof can also be used as antidepressants because it can effectively shorten the immobility time of mice during forced swimming thereof and also increase spontaneous locomotor activity.
# [4] = KCN-induced cerebral energy metabolism disorders; format: in vivo
# Excerpt: (§2) The compound (I) of the present invention and a salt thereof are useful as a cerebral activator. More particularly, Compound (I) and a salt thereof can effectively prolong the survival time of mice suffering from KCN-induced cerebral anoxia or hypobaric hypoxia, and show potent protective action against brain ischemia. Compound (I) and a salt thereof can also improve KCN-induced cerebral energy metabolism disorders. Further, Compound (I) and a salt thereof improve scopolamine-induced amnesia, and show potent anticonvulsive, AChE (acetylchline esterase) inhibitory and GABA-mimetic or GABA-potentiative actions. […] Based on these therapeutic effects, Compound (I) and a salt thereof can be used as a cerebral metabolism activator and/or a nootropic drug.
# Acute toxicity (LD50) = conditions: mouse, in vivo; oral, male Std/ddY mice, estimated 7 days after administration
# Excerpt: as §1
# [5] = Survival time of mice under hypobaric hypoxia (closed container, reduced pressure); format: in vivo; conditions: 30 mg/kg (p.o.); pressure 165 mmHg
# Excerpt: as §2
SMILES,inhibition of tonic extensive convulsion induced by maximum electroshock [1],also measured
"Cc1cccc(/C=C/CN2CCN(c3ccncc3)C2=O)c1 [compound 7, (E)-1-(3-methylcinnamyl)-3-(4-pyridyl)-2-imidazolidinone]",completely inhibited,
"O=C1N(C/C=C/c2ccccc2Cl)CCN1c1ccncc1 [compound 6, (E)-1-(2-chlorocinnamyl)-3-(4-pyridyl)-2-imidazolidinone]",completely inhibited,
"O=C1N(C/C=C/c2cccc(Cl)c2)CCN1c1ccncc1 [compound 5, (E)-1-(3-chlorocinnamyl)-3-(4-pyridyl)-2-imidazolidinone]",completely inhibited,
"O=C1N(C/C=C/c2ccc(Cl)cc2)CCN1c1cccnc1 [compound 1, (E)-1-(4-chlorocinnamyl)-3-(3-pyridyl)-2-imidazolidinone]",completely inhibited,
"O=C1N(C/C=C\c2ccccc2)CCN1c1ccncc1 [compound 9, (Z)-1-cinnamyl-3-(4-pyridyl)-2-imidazolidinone]",completely inhibited,
"O=C1N(C/C=C/C=C/c2ccccc2Cl)CCN1c1ccncc1 [(2E,4E)-1-[5-(2-chlorophenyl)-2,4-pentadienyl]-3-(4-pyridyl)-2-imidazolidinone]",,decrease in gastric juice secretion [2]: ≥ 42%
"O=C1N(CCC/C=C/c2ccccc2)CCN1c1ccncc1 [compound 8, (E)-1-(5-phenyl-4-pentenyl)-3-(4-pyridyl)-2-imidazolidinone]",completely inhibited,
O=C1N(C/C=C/c2ccccc2)CCN1c1cccnc1 [(E)-1-cinnamyl-3-(3-pyridyl)-2-imidazolidinone],,"spontaneous locomotion in mice which received apomorphine [3]: significant increase; KCN-induced cerebral metabolism disorders [4]: improve the KCN-induced cerebral metabolism disorders; decrease in energy metabolism-relating substances (ATP, creatine-P, glucose or glycogen in the brain) induced by KCN [4]: inhibit the decrease; LD50 at 168 h (Acute toxicity (LD50)): > 1500 mg/kg; survival time of mice which suffered from hypobaric hypoxia [5]: significantly prolong the survival time"
"O=C1N(C/C=C/c2ccc(Cl)cc2)CCN1c1ccncc1 [compound 2, (E)-1-(4-chlorocinnamyl)-3-(4-pyridyl)-2-imidazolidinone]",completely inhibited,
"O=C1N(C/C=C/c2ccccc2)CCN1c1ncccn1 [compound 4, (E)-1-cinnamyl-3-(2-pyrimidinyl)-2-imidazolidinone]",completely inhibited,
"Cl.O=C1N(C/C=C/c2ccccc2)CCN1c1cccnc1 [compound 3, (E)-1-cinnamyl-3-(3-pyridyl)-2-imidazolidinone hydrochloride]",completely inhibited,decrease in gastric juice secretion [2]: ≥ 42%
